The values that follow come from patent publication US20130345177A1, “Oleyl Phosphocholine for the Treatment of Mycosis” (DAFRA PHARMA RESEARCH & DEVELOPMENT BVBA, priority 2011, published 2013).

For data set [1] the following is noted: people taking itraconazole; cited from earlier work.
Data set [2] concerns Scedosporium prolificans IHEM 22387 (clinical blood isolate). The data set is described as follows: CLSI broth dilution antifungal susceptibility (microplates). In kind it is cell-based. The settings on record: 48 hours of incubation; for MIC: Lomentospora prolificans, read-out: MIC100 (48 h). As to the method:
(§1) The above strains were contacted with oleyl phosphocholine on microplates and the anti-fungal activity of oleyl phosphocholine was determined. In comparison, the same test was performed using amphotericin B (AMB), voriconazole (VRZ) and itraconazole (ITR). The test protocol used was in conformity with the standard CLSI method: Clinical and Laboratory Standards Institute/National Committee for Clinical Laboratory Standards (2002) Reference method for broth dilution antifungal susceptibility testing of yeasts. […] Clinical and Laboratory Standards Institute/National Committee for Clinical Laboratory Standards Institute, Wayne Pa. Clinical and Laboratory Standards Institute/National Committee for Clinical Laboratory Standards. (2002) Reference method for broth dilution antifungal susceptibility testing of filamentous fungi. Approved Standard document M38-A. Clinical and Laboratory Standards Institute/National Committee for Clinical Laboratory Standards Institute, Wayne […]
Background: Dilution methods test growth across graded concentrations, often in twofold steps.

Data set [3] concerns Candida albicans IHEM 3731 (ATCC 10231). The data set is described as above. In kind it is cell-based. The settings on record: for MIC50: ATCC10231, 48 hours of incubation, inhibits growth of 50%; for MIC100 (48 h): 48 hours of incubation, inhibits growth of 100%. As to the method:
as §1

In data set [4] the test system is Fusarium solani IHEM 18489 (clinical isolate). The data set is described as above. The settings on record: 48 hours of incubation; for MIC: read-out: MIC100 (48 h). In kind it is cell-based. As to the method: as §1
Data set [5] has as its system Candida parapsilosis IHEM 3270 (ATCC 22019). The data set is described as above. In kind it is cell-based. The settings on record: for MIC50: Lodderomyces parapsilosis, ATCC22019, 48 hours of incubation, inhibits growth of 50%; for MIC100 (48 h): 48 hours of incubation, inhibits growth of 100%. As to the method:
as §1

For data set [6], the system named is Aspergillus terreus IHEM 13669 (clinical isolate). Described as above. The class given is cell-based. The settings on record: 48 hours of incubation; for MIC: read-out: MIC100 (48 h). As to the method:
as §1

Data set [7] has as its system Candida krusei IHEM 9560 (ATCC 6258). Described as above. In kind it is cell-based. The settings on record: for MIC50: Pichia kudriavzevii, ATCC6258, 48 hours of incubation, inhibits growth of 50%; for MIC100 (48 h): 48 hours of incubation, inhibits growth of 100%. As to the method: as §1
Data set [8] deals with Aspergillus fumigatus IHEM 18963 (NCPF 7367). The data set is described as above. The settings on record: for MIC: NCPF7367, 48 hours of incubation, read-out: MIC100 (48 h); for MIC100 (48 h): 48 hours of incubation. In kind it is cell-based. Here is the method:
as §1

Data set [9] deals with Candida glabrata IHEM 19371 (clinical blood isolate). Described as above. In kind it is cell-based. The note with it: 48 hours of incubation; for MIC50: Nakaseomyces glabratus, inhibits growth of 50%; for MIC100 (48 h): inhibits growth of 100%. Here is the method:
as §1

Data set [10] has as its system Aspergillus niger IHEM 5788 (ATCC 10864). The description is as above. The settings on record: for MIC: ATCC10864, 48 hours of incubation, read-out: MIC100 (48 h); for MIC100 (48 h): 48 hours of incubation. The class given is cell-based. As to the method: as §1
Data set [11] concerns Candida albicans IHEM 19114 (clinical blood isolate resistant for voriconazole and itraconazole). Described as above. The class given is cell-based. The settings on record: Candida albicans IHEM 19114 (resistant), 48 hours of incubation; for MIC50: inhibits growth of 50%; for MIC100 (48 h): inhibits growth of 100%. As to the method:
The following ten strains were tested for assaying the anti-fungal activity of oleyl phosphocholine.
The above strains were contacted with oleyl phosphocholine on microplates and the anti-fungal activity of oleyl phosphocholine was determined. In comparison, the same test was performed using amphotericin B (AMB), voriconazole (VRZ) and itraconazole (ITR).
The test protocol used was in conformity with the standard CLSI method:
Clinical and Laboratory Standards Institute/National Committee for Clinical Laboratory Standards (2002) Reference method for broth dilution antifungal susceptibility testing of yeasts. Approved Standard document M27-A2. Clinical and Laboratory Standards Institute/National Committee for Clinical Laboratory Standards Institute, Wayne Pa. Clinical and Laboratory Standards Institute/National Committee for Clinical Laboratory Standards. (2002) Reference method for broth dilution antifungal susceptibility testing of filamentous fungi. Approved Standard document M38-A. Clinical and Laboratory Standards Institute/National Committee for Clinical Laboratory Standards Institute, Wayne
The results, after visual and spectrophometric reading after 48 hours of incubation, are presented as MIC50 and MIC 100, i.e. the minimum inhibitory concentration required inhibiting the growth of 50% or 100% of the microorganisms, respectively.

In a further data set the test system is Microsporum canis. As to the kind of experiment: In vitro efficacy against yeasts and fungi (microplates). The class given is cell-based. Here is the method: (§2) The above strains were contacted oleyl phosphocholine on microplates and the anti-fungal activity of oleyl phosphocholine was determined. Anti-fungal activity was expressed as IC50, i.e. the concentration oleyl phosphocholine needed to kill 50% of the pathogens.

Data set [12] concerns Aspergillus fumigatus B19119. Described as above. In kind it is cell-based. As to the method:
as §2

The subject of data set [13] is Fusarium oxysporum IHEM3014. The description is as above. The class given is cell-based. Here is the method: as §2
For data set [14], the system named is Trichophyton mentagrophytes B70554. The description is as above. In kind it is cell-based. As to the method: as §2
Data set [15] deals with Candida parapsilosis B66126. Described as above. In kind it is cell-based. Here is the method:
as §2

A further data set concerns Candida albicans. The description is as above. In kind it is cell-based. The note with it: concentration needed to kill 50% of the pathogens. As to the method: as §2
The next data set deals with Aspergillus fumigatus. The description is as above. In kind it is cell-based. Here is the method:
as §2

For data set [16], the system named is Candida albicans B63195 (S). Described as above. The class given is cell-based. Here is the method:
as §2

In data set [17] the test system is Sporothrix schenkii B62482. Described as above. In kind it is cell-based. As to the method:
as §2

Data set [18] deals with Cryptococcus neoformans B66663. The description is as above. In kind it is cell-based. Here is the method: as §2
Data set [19] deals with Trichophyton rubrum B68183. The data set is described as above. In kind it is cell-based. Here is the method:
as §2

The subject of another data set is Cryptococcus neoformans. The data set is described as above. In kind it is cell-based. As to the method:
as §2

The test system of data set [20] is Candida albicans B59630 (R). Described as above. The class given is cell-based. As to the method: as §2
In data set [21] the test system is Fusarium solani IHEM22128. The data set is described as above. In kind it is cell-based. As to the method: as §2
The test system of the next data set is Sporothrix schenkii. The description is as above. The class given is cell-based. Here is the method: as §2
In data set [22] the test system is Aspergillus fumigatus B42928. Described as above. The class given is cell-based. As to the method:
as §2

The next data set deals with Trichophyton rubrum. Described as above. In kind it is cell-based. As to the method:
as §2

The subject of a further data set is Candida yeast. The note with it: patients with culture-proven candidemia; cited from earlier work.

In brackets after ≈: the same amount, converted by molar mass.

For orientation: MIC50 means the lowest concentration that inhibits either 50% of growth or 50% of the strains tested, depending on the study. For `CCC(C)n1ncn(-c2ccc(N3CCN(c4ccc(OCC5COC(Cn6cncn6)(c6ccc(Cl)cc6Cl)O5)cc4)CC3)cc2)c1=O` (centres unmarked) [ITR, itraconazole], in data set [1], the “people with elevated alanine aminotransferase levels” value is reported as 4%. Also, the MIC in data set [2] is > 16 µg/mL; in data set [4], > 16 µg/mL; in [6], 0.25 µg/mL (≈ 0.354 µM); in data set [8], 0.5 µg/mL (≈ 0.709 µM); in data set [10], 0.5 µg/mL (≈ 0.709 µM). The MIC50 in data set [3] was 0.032 µg/mL (≈ 0.0453 µM); in [5] it was 0.064 µg/mL (≈ 0.0907 µM); in [7], 0.25 µg/mL (≈ 0.354 µM); in data set [9], 0.5 µg/mL (≈ 0.709 µM); in data set [11], > 16 µg/mL.

For orientation: IC50 means the concentration that inhibits the measured activity by half. A low value points to greater potency. In the case of `CCCCCCCC/C=C\CCCCCCCCOP(=O)([O-])OCC[N+](C)(C)C` [OlPC, oleyl phosphocholine], the “MIC100 (48 h)” value was 5 µg/mL (≈ 11.5 µM) in data set [2]; 2.5 µg/mL (≈ 5.77 µM) in [3]; 5 µg/mL (≈ 11.5 µM) in data set [4]; 5 µg/mL (≈ 11.5 µM) in data set [5]; 10 µg/mL (≈ 23.1 µM) in data set [6]; 5 µg/mL (≈ 11.5 µM) in data set [7]. Further, the “MIC100 (48 h)” value in data set [8] is 5 µg/mL (≈ 11.5 µM); in [9], 5 µg/mL (≈ 11.5 µM); in data set [10], 10 µg/mL (≈ 23.1 µM); in [11] it was 2.5 µg/mL (≈ 5.77 µM). In addition, the IC50 was 1.66 µM in the data set on Microsporum canis; 1.87 µM in [12]; 2.55 µM in [13]; 2 µM in data set [14]; 8 µM in [15]; 7.89 µM with Candida albicans. The IC50 was found to be 18.8 µM with Aspergillus fumigatus; 7.77 µM in data set [16]; 1.97 µM in data set [17]; 0.5 µM in data set [18]; 2 µM in data set [19]; 4.5 µM in the data set on Cryptococcus neoformans. The IC50 in data set [20] was 8 µM; in data set [21], 2.31 µM; with Sporothrix schenkii it was 8.16 µM; in data set [22] it was 8 µM; in the data set with Trichophyton rubrum, 5.87 µM.

For the molecule `C[C@@H]1[C@H](O)[C@@H](C)/C=C/C=C/C=C/C=C/C=C/C=C/C=C/[C@H](O[C@@H]2O[C@H](C)[C@@H](O)[C@H](N)[C@@H]2O)C[C@@H]2O[C@](O)(C[C@@H](O)C[C@@H](O)[C@H](O)CC[C@@H](O)C[C@@H](O)CC(=O)O[C@H]1C)C[C@H](O)[C@H]2C(=O)O` [AMB, amphotericin B], in the data set with Candida yeast, the “time to clear Candida yeast from the bloodstream (median)” value is on record as 2 days. Besides, the “MIC100 (48 h)” value in [2] was >8 µg/mL; in [3], 0.5 µg/mL (≈ 0.541 µM); in [4] it was 2 µg/mL (≈ 2.16 µM); in data set [5] it was 1 µg/mL (≈ 1.08 µM); in data set [6] it was >8 µg/mL; in data set [7] it was 1 µg/mL (≈ 1.08 µM). Moreover, the “MIC100 (48 h)” value in [8] stood at 2 µg/mL (≈ 2.16 µM); in data set [9] it was 0.5 µg/mL (≈ 0.541 µM); in data set [10], 1 µg/mL (≈ 1.08 µM); in data set [11], 0.5 µg/mL (≈ 0.541 µM).

As for `C[C@@H](c1ncncc1F)[C@](O)(Cn1cncn1)c1ccc(F)cc1F` [VRZ, voriconazole], the MIC in data set [2] worked out at 16 µg/mL (≈ 45.8 µM); in [4], 16 µg/mL (≈ 45.8 µM); in data set [6], 0.5 µg/mL (≈ 1.43 µM); in data set [8], 1 µg/mL (≈ 2.86 µM); in data set [10], 1 µg/mL (≈ 2.86 µM). Besides, the MIC50 in data set [3] was 0.064 µg/mL (≈ 0.183 µM); in data set [5] it was 0.125 µg/mL (≈ 0.358 µM); in [7] it was 0.5 µg/mL (≈ 1.43 µM); in [9], 0.25 µg/mL (≈ 0.716 µM); in data set [11] it was > 16 µg/mL.
